Measurements from US20250223268A1, “4-Methylsulfonylbenzamide Compound, Preparation Method, Herbicidal Composition And Use” (Jiangsu Flag Chemical Industry Co., Ltd., priority 2022, published 2025).

Experiments:
Format in all cases: in vivo
Leptochloa chinensis [1] = experiment: Greenhouse herbicidal activity and crop safety comparison (Test Example 2); conditions: Rate 150 g/ha
How it was run: (§1)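 Fresh weight inhibition, banded into grades A to E (E <20%), was rated 14-21 days after foliar spraying of 3-6 leaf plants, or 14-30 days after a soil spray applied 24 h post-sowing.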

[2] = system: Oryza sativa subsp. japonica; experiment: as above; conditions: Rate 150 g/ha
How it was run: as §1

Echinochloa crusgalli [3] = experiment: as above; conditions: Rate 150 g/ha
How it was run: as §1

[4] = system: Oryza sativa subsp. indica; experiment: as above; conditions: Rate 150 g/ha
How it was run: as §1

Leptochloa chinensis [5] = experiment: Greenhouse herbicidal activity assay, post-emergence; conditions: Post-emergence test, rate 150 g a.i./hm^2; grade by fresh weight inhibition rate
How it was run: (§2)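 Foliar spray at 3-6 leaves; pot-grown in nutrient soil in growth chamber; air-dried post-spray. Read-out at 14-21 d: fresh weight inhibition, graded A (≥80% to 100%) down to E (<20%); NT = not tested.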

Echinochloa crusgalli [6] = experiment: as above; conditions: Post-emergence test, rate 150 g a.i./hm^2; grade by fresh weight inhibition rate
How it was run: as §2

Cyperus iria = experiment: as above; conditions: Post-emergence test, rate 150 g a.i./hm^2; grade by fresh weight inhibition rate
How it was run: as §2

Digitaria sanguinalis = experiment: as above; conditions: Post-emergence test, rate 150 g a.i./hm^2; grade by fresh weight inhibition rate
How it was run: as §2

Eclipta prostrata = experiment: as above; conditions: Post-emergence test, rate 150 g a.i./hm^2; grade by fresh weight inhibition rate
How it was run: as §2

For `CCC(C)S(=O)(=O)c1c(S(C)(=O)=O)ccc(C(=O)Nc2nnc(C3CC3)o2)c1Cl` (racemic) [Compound 3-638], the “Leptochloa chinensis, control efficacy grading (fresh weight inhibition rate)” value (Leptochloa chinensis [1]) was “A (Fresh weight inhibition rate≥80% to 100%)”, the “Oryza sativa subsp. japonica, grading of fresh weight inhibition rate (crop safety)” value [2] was “E (Fresh weight inhibition rate<20%)” and the “Echinochloa crusgalli, control efficacy grading (fresh weight inhibition rate)” value (Echinochloa crusgalli [3]) was “A (Fresh weight inhibition rate≥80% to 100%)”. The “Oryza sativa subsp. indica, grading of fresh weight inhibition rate (crop safety)” value [4] was “E (Fresh weight inhibition rate<20%)”, the “Control efficacy grade, Leptochloa chinensis” value (Leptochloa chinensis [5]) was “A (Fresh weight inhibition rate≥80% to 100%)” and the “Control efficacy grade, Echinochloa crusgalli” value (Echinochloa crusgalli [6]) was “A (Fresh weight inhibition rate≥80% to 100%)”. The “Control efficacy grade, Cyperus iria” value (Cyperus iria) was “A (Fresh weight inhibition rate≥80% to 100%)”, the “Control efficacy grade, Digitaria sanguinalis” value (Digitaria sanguinalis) was “B (Fresh weight inhibition rate≥260% to <80%)” and the “Control efficacy grade, Eclipta prostrata” value (Eclipta prostrata) was “A (Fresh weight inhibition rate≥80% to 100%)”.

For `CCC(C)S(=O)(=O)c1c(S(C)(=O)=O)ccc(C(=O)Nc2nnc(C)o2)c1Cl` (racemic) [Compound 3-24], the “Leptochloa chinensis, control efficacy grading (fresh weight inhibition rate)” value (Leptochloa chinensis [1]) was “A (Fresh weight inhibition rate≥80% to 100%)”, the “Oryza sativa subsp. japonica, grading of fresh weight inhibition rate (crop safety)” value [2] was “E (Fresh weight inhibition rate<20%)” and the “Echinochloa crusgalli, control efficacy grading (fresh weight inhibition rate)” value (Echinochloa crusgalli [3]) was “A (Fresh weight inhibition rate≥80% to 100%)”. The “Oryza sativa subsp. indica, grading of fresh weight inhibition rate (crop safety)” value [4] was “E (Fresh weight inhibition rate<20%)”, the “Control efficacy grade, Leptochloa chinensis” value (Leptochloa chinensis [5]) was “A (Fresh weight inhibition rate≥80% to 100%)” and the “Control efficacy grade, Echinochloa crusgalli” value (Echinochloa crusgalli [6]) was “A (Fresh weight inhibition rate≥80% to 100%)”. The “Control efficacy grade, Cyperus iria” value (Cyperus iria) was “A (Fresh weight inhibition rate≥80% to 100%)”, the “Control efficacy grade, Digitaria sanguinalis” value (Digitaria sanguinalis) was “A (Fresh weight inhibition rate≥80% to 100%)” and the “Control efficacy grade, Eclipta prostrata” value (Eclipta prostrata) was “A (Fresh weight inhibition rate≥80% to 100%)”.

`C=CCS(=O)(=O)c1c(S(C)(=O)=O)ccc(C(=O)Nc2nnc(C3CC3)o2)c1Cl` [Compound 3-690] was tested, and the “Leptochloa chinensis, control efficacy grading (fresh weight inhibition rate)” value (Leptochloa chinensis [1]) was “A (Fresh weight inhibition rate≥80% to 100%)”, the “Oryza sativa subsp. japonica, grading of fresh weight inhibition rate (crop safety)” value [2] was “E (Fresh weight inhibition rate<20%)” and the “Echinochloa crusgalli, control efficacy grading (fresh weight inhibition rate)” value (Echinochloa crusgalli [3]) was “A (Fresh weight inhibition rate≥80% to 100%)”. The “Oryza sativa subsp. indica, grading of fresh weight inhibition rate (crop safety)” value [4] was “E (Fresh weight inhibition rate<20%)”, the “Control efficacy grade, Leptochloa chinensis” value (Leptochloa chinensis [5]) was “A (Fresh weight inhibition rate≥80% to 100%)” and the “Control efficacy grade, Echinochloa crusgalli” value (Echinochloa crusgalli [6]) was “A (Fresh weight inhibition rate≥80% to 100%)”. The “Control efficacy grade, Cyperus iria” value (Cyperus iria) was “A (Fresh weight inhibition rate≥80% to 100%)”, the “Control efficacy grade, Digitaria sanguinalis” value (Digitaria sanguinalis) was “B (Fresh weight inhibition rate≥260% to <80%)” and the “Control efficacy grade, Eclipta prostrata” value (Eclipta prostrata) was “A (Fresh weight inhibition rate≥80% to 100%)”.

In the case of `C=CCS(=O)(=O)c1c(S(C)(=O)=O)ccc(C(=O)Nc2nnc(C(C)C)o2)c1Cl` [Compound 3-574], the “Leptochloa chinensis, control efficacy grading (fresh weight inhibition rate)” value (Leptochloa chinensis [1]) is reported as “A (Fresh weight inhibition rate≥80% to 100%)”, the “Oryza sativa subsp. japonica, grading of fresh weight inhibition rate (crop safety)” value [2] is reported as “E (Fresh weight inhibition rate<20%)” and the “Echinochloa crusgalli, control efficacy grading (fresh weight inhibition rate)” value (Echinochloa crusgalli [3]) is reported as “A (Fresh weight inhibition rate≥80% to 100%)”. For the same compound, the “Oryza sativa subsp. indica, grading of fresh weight inhibition rate (crop safety)” value [4] was “E (Fresh weight inhibition rate<20%)”, the “Control efficacy grade, Leptochloa chinensis” value (Leptochloa chinensis [5]) was “A (Fresh weight inhibition rate≥80% to 100%)” and the “Control efficacy grade, Echinochloa crusgalli” value (Echinochloa crusgalli [6]) was “A (Fresh weight inhibition rate≥80% to 100%)”. For the same compound, the “Control efficacy grade, Cyperus iria” value (Cyperus iria) was “A (Fresh weight inhibition rate≥80% to 100%)”, the “Control efficacy grade, Digitaria sanguinalis” value (Digitaria sanguinalis) was “B (Fresh weight inhibition rate≥260% to <80%)” and the “Control efficacy grade, Eclipta prostrata” value (Eclipta prostrata) was “A (Fresh weight inhibition rate≥80% to 100%)”.

For `CS(=O)(=O)c1ccc(C(=O)Nc2nnco2)c(Cl)c1S(=O)(=O)CC(F)(F)F` [Compound 3-327], the “Leptochloa chinensis, control efficacy grading (fresh weight inhibition rate)” value (Leptochloa chinensis [1]) was “A (Fresh weight inhibition rate≥80% to 100%)”, the “Oryza sativa subsp. japonica, grading of fresh weight inhibition rate (crop safety)” value [2] was “E (Fresh weight inhibition rate<20%)” and the “Echinochloa crusgalli, control efficacy grading (fresh weight inhibition rate)” value (Echinochloa crusgalli [3]) was “A (Fresh weight inhibition rate≥80% to 100%)”. The “Oryza sativa subsp. indica, grading of fresh weight inhibition rate (crop safety)” value [4] was “E (Fresh weight inhibition rate<20%)”, the “Control efficacy grade, Leptochloa chinensis” value (Leptochloa chinensis [5]) was “A (Fresh weight inhibition rate≥80% to 100%)” and the “Control efficacy grade, Echinochloa crusgalli” value (Echinochloa crusgalli [6]) was “A (Fresh weight inhibition rate≥80% to 100%)”. The “Control efficacy grade, Cyperus iria” value (Cyperus iria) was “A (Fresh weight inhibition rate≥80% to 100%)”, the “Control efficacy grade, Digitaria sanguinalis” value (Digitaria sanguinalis) was “B (Fresh weight inhibition rate≥260% to <80%)” and the “Control efficacy grade, Eclipta prostrata” value (Eclipta prostrata) was “A (Fresh weight inhibition rate≥80% to 100%)”.
